Like-named read-outs stand apart in the source and are kept apart here.
Key:
[1] = One-electron reduction potentials by pulse radiolysis; assay type: physicochemical; conditions: pH 7.0, equilibrium with redox indicator shown in square brackets
Procedure: One-electron reduction potentials (E^0′) were determined from the redox equilibria with methylviologen, MV^2+, (E^0′ = […], [34]), dimethyldiquat, V21^2+, (E^0′ = […], [35]), or triquat, TQ^2+, (E^0′ = −548 ± 7 mV [34]). […] Substituting the 3-alkanoic sidechain with the 3-aminoalkanoic sidechain on the BTO 1,4-dioxide lowers the E^0′, as does the addition of the cyclopentane ring. The combined effect is seen for 10a, where the E^0′ value is −565 mV, which is expected to be too low for significant bioreduction under hypoxia.
Time-resolved optical absorption and kinetic studies were carried out using the University of Auckland’s 4 MeV linear accelerator, which has been previously described. The one-electron reduction potentials of the compounds (A) and couple E^0′(A/A^−), versus normal hydrogen electrode, were determined at pH 7.0 (2.5 mM phosphate) by establishing redox equilibria within 50 μs between three mixtures of one-electron reduced A and the viologen reference compounds, MV^2+, TQ^2+ and V21^2+. The determined equilibrium constants were used to calculate the ΔE values using the Nernst equation, correcting for ionic strength effects, as described in the literature.

FaDu cells = test: IC50 assay (inhibition of proliferation, 4 h exposure, SRB); assay type: cell-based; conditions: for IC50: Homo sapiens, 4 h
SiHa cells [2] = test: Metabolism and uptake of ester 4b in anoxic single cell suspensions; assay type: in vitro ADME; conditions: anoxic SiHa suspensions after addition of 4b (150 μM)
Description: If the anionic sidechain of the BTO acids results in low intracellular concentrations, with reductive metabolism occurring largely at the cell surface, the corresponding esters would be expected to provide improved delivery to the intracellular compartment (consistent with their higher cytotoxic potencies, as noted in Section 2.5). To test this, we compared the metabolism of ester 4b (Figure 7A) with its corresponding acid 4a (Figure 7B) by monitoring extracellular concentrations in anoxic SiHa suspensions. The rates of metabolism of both compounds were unaffected by pHe, consistent with the results for 4a in Figure 5B. The ester was metabolized more rapidly than the acid, with only a trace of acid 4a detected transiently as an extracellular metabolite (Figure 7A). The major metabolites were the less polar 1-oxide, 15a, and the 1-oxide of the ester, 16a. In separate experiments with higher initial concentrations of 4b, 15a was again the main extracellular metabolite (Figure 7C, left). […] Compound 4b itself was not detected in the intracellular samples, presumably reflecting a lack of retention in cells and the very low intracellular volume, which will compromise analytical sensitivity (only 2 × 10^6 cells were collected for each analysis in this experiment).
Figure 7 Metabolism of BTO ester 4b and the corresponding acid 4a by anoxic SiHa single cell suspensions (2 × 10^6 cells/mL). (A) Extracellular concentrations following the addition of 4b (50 μM). (B) Extracellular concentrations following the addition of 4a (50 μM). (C) Extracellular (left) and intracellular (right) concentrations following the addition of 4b (150 μM). Values are means and errors are SEM for 3 replicate cultures.

SiHa cells [3] = test: IC50 assay (inhibition of proliferation, 4 h exposure, SRB); conditions: SiHa; for IC50: Homo sapiens, 4 h
Procedure: Cells were seeded in 96-well plates (SiHa or FaDu 1500 cells/well, UT-SCC-74B 800 cells/well) in 100 μL. After incubation for 2 h, the drugs were added in 50 μL of the same titrated medium at 3× the final concentration to duplicate the wells. After a further 4 h the plates were checked for drug precipitation using a phase contrast microscope, then drugs were removed by aspirating and washing with the standard (pH 7.4) medium, then aspirating again and adding 150 μL of the medium. Cultures were then grown for 5 days before staining with sulphorhodamine B and measuring absorbance, with the estimation of IC50 values using 4-parameter logistic regression, as previously carried out.
The medium and plasticware was equilibrated in the chamber for 3 days prior to use. In the anoxia experiments, FaDu cells were plated in poly-L-lysine coated plates (Corning Cat # 356461) to improve attachment.
Cells were subsequently grown under standard cell culture conditions (oxia, pHe 7.4) for 5 days before staining with sulforhodamine B (SRB). […] (B) SN30000 (2). (C) BTO acid 4a. Values are means and errors are ranges for duplicate cultures in a single experiment. Fitted curves are 4-parameter logistic regressions. PCR = pH cytotoxicity ratio. ACR = anoxia cytotoxicity ratio. TMR = tumor microenvironment ratio.

[4] = Solubility in AlphaMEM + 5% FBS, pH 7.4; conditions: culture medium (AlphaMEM + 5% FBS), pH 7.4, plasma or biological fluid, thermodynamic from solid
[5] = cited from earlier work
SiHa and FaDu cells = test: IC50 assay, summary statements over both cell lines; assay type: cell-based; conditions: SiHa and FaDu, anoxia, pHe 6.5; read-out: Potency (IC50) under anoxia at pHe 6.5
Procedure: Cells were seeded in 96-well plates (SiHa or FaDu 1500 cells/well, UT-SCC-74B 800 cells/well) in 100 μL. After incubation for 2 h, the drugs were added in 50 μL of the same titrated medium at 3× the final concentration to duplicate the wells. After a further 4 h the plates were checked for drug precipitation using a phase contrast microscope, then drugs were removed by aspirating and washing with the standard (pH 7.4) medium, then aspirating again and adding 150 μL of the medium. Cultures were then grown for 5 days before staining with sulphorhodamine B and measuring absorbance, with the estimation of IC50 values using 4-parameter logistic regression, as previously carried out [85].

[6] = pHe 6.5, 4 h, anoxic, read-out: Anoxic IC50
[7] = pHe 6.5, 4 h, oxic, read-out: Oxic IC50
[8] = pHe 7.4, 4 h, anoxic, read-out: Anoxic IC50
[9] = pHe 7.4, 4 h, oxic, read-out: Oxic IC50
[10] = read-out: Anoxic IC50, SiHa, pHe 6.5, 4 h, anoxic
[11] = read-out: Anoxic IC50, SiHa, pHe 7.4, 4 h, anoxic
[12] = read-out: Oxic IC50, SiHa, pHe 6.5, 4 h, oxic
[13] = read-out: Oxic IC50, SiHa, pHe 7.4, 4 h, oxic

melting point | Structure (SMILES) | TMR (oxic IC50 pHe 7.4/anoxic IC50 pHe 6.5) (FaDu cells) | IC50 (FaDu cells; [6]) | IC50 (FaDu cells; [7]) | IC50 (FaDu cells; [8]) | IC50 (FaDu cells; [9]) | PCR Anoxic (IC50 at pHe 7.4/IC50 at pHe 6.5) (FaDu cells; anoxic) | PCR oxic (IC50 at pHe 7.4/IC50 at pHe 6.5) (FaDu cells; oxic) | ACR (oxic IC50/anoxic IC50) (FaDu cells; pHe 6.5) | ACR (oxic IC50/anoxic IC50) (FaDu cells; pHe 7.4) | IC50 (SiHa cells [3]; [10]) | IC50 (SiHa cells [3]; [11]) | IC50 (SiHa cells [3]; [12]) | IC50 (SiHa cells [3]; [13]) | TMR (overall TME ratio = oxic IC50 pHe 7.4/anoxic IC50 pHe 6.5) (SiHa cells [3]) | PCR Anoxic (IC50 at pHe 7.4/IC50 at pHe 6.5) (SiHa cells [3]) | PCR oxic (IC50 at pHe 7.4/IC50 at pHe 6.5) (SiHa cells [3]) | other results
89 to 91 °C | COC(=O)CCc1n[n+]([O-])c2ccccc2[n+]1[O-] [Compound 4b, 3-(3-Methoxy-3-oxopropyl)benzo[e][1,2,4]triazine 1,4-Dioxide] | 42.3 ± 2.6 | 3.3 ± 0.11 µM | 98 ± 12 µM | 3.2 ± 0.38 µM | 140 ± 7 µM | 0.97 ± 0.12 | 1.43 ± 0.19 | 29.6 ± 3.8 | 43.6 ± 5.7 | 1.8 ± 0.46 µM | 1.4 ± 0.1 µM | 26.3 ± 7.1 µM | 34.4 ± 3.5 µM | 19.1 ± 5.3 | 0.78 ± 0.21 | 1.31 ± 0.38 | E^0′ one-electron reduction potential [1]: −363 ± 7 [MV^2+] mV; Detection in intracellular samples (SiHa cells [2]): not detected; ACR (anoxic cytotoxicity ratio = oxic IC50/anoxic IC50) (SiHa cells [3]; pHe 6.5): 14.5 ± 5.4; ACR (anoxic cytotoxicity ratio = oxic IC50/anoxic IC50) (SiHa cells [3]; pHe 7.4): 24.6 ± 3.1; solubility [4]: 17.7 mM
152 to 154 °C (dec.) | O=C(O)CCc1nc2ccccc2[n+]([O-])n1 [Compound 15a, 3-(2-Carboxyethyl)benzo[e][1,2,4]triazine 1-Oxide] |  |  |  |  |  |  |  |  |  |  |  |  |  |  |  |  | Intracellular concentration, fold lower than that of acid 4a (SiHa cells [2]): approximately 10 fold
 | Nc1n[n+]([O-])c2ccccc2[n+]1[O-] [Compound 3, tirapazamine, reference compound] | 26.2 ± 5.9 | 6.96 ± 1.38 µM | 127 ± 14 µM | 5.9 ± 0.48 µM | 182 ± 20 µM | 0.85 ± 0.18 | 1.43 ± 0.22 | 18.3 ± 4.1 | 30.9 ± 4.2 | 2.9 ± 0.38 µM | 2.81 ± 0.3 µM | 91 ± 21 µM | 162 ± 8 µM | 56 ± 8 | 0.97 ± 0.16 | 1.77 ± 0.42 | E^0′ one-electron reduction potential ([5]; pulse radiolysis, redox indicator MV^2+): −456 ± 8 [MV^2+] ^h mV; IC50 (SiHa and FaDu cells): 2.9 to 8.6 µM
 | c1cc[n+]2c(c1)-c1cccc[n+]1CCC2 [triquat, 7,8-dihydrodipyrido-[1,2-a:2′,1′-c][1,4]diazepinedium] |  |  |  |  |  |  |  |  |  |  |  |  |  |  |  |  | E^0′ of redox indicator ([5]; reference viologen): −548 ± 7 mV
